Assay results published in publication PMC6316731 (Brain Sciences, 2018).

Test system: GABA induced current in MSNs (GABAA receptors with δ subunits / GABAC receptors)
Assay type: cell-based, mouse

Oc1noc2c1CCNC2 [Gaboxadol, 4,5,6,7-tetrahydroisoxazolo (5,4-c) pyridin-3-ol]
Effect on IGABA: concentration-dependent reduction in IGABA
EC50 (read-out: EC50, percent reduction in current by Gaboxadol): 9.81 ± 3.56 µM
